Results from paper PMC5678437, “A new antagonist for CCR4 attenuates allergic lung inflammation in a mouse model of asthma” (Scientific Reports, 2017).

Legend:
CCR3 = target: T1, CCR3 (Homo sapiens, UniProt P51677); assay: Chemotaxis inhibition assay for receptor specificity, HEK293-CCR3; assay type: cell-based; details: 0.2, 1, 5, 25 μM, 30 min pretreatment
T1 sequence (P51677 2-355 limits assumed): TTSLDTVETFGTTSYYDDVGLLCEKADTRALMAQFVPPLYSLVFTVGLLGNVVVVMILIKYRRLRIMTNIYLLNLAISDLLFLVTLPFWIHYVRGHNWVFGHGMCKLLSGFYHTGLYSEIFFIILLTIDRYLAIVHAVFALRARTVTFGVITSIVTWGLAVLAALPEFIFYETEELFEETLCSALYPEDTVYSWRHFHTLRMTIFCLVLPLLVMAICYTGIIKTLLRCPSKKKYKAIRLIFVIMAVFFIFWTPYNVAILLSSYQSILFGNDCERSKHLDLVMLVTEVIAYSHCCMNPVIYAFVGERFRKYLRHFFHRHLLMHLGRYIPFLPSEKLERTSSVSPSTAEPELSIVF
Procedure: (§1) HEK293 cells were transfected with different chemokine receptors. The corresponding chemokines of different receptors were placed in the lower chambers. The transfected cells were pretreated with different concentrations of Compound 8a or 1‰ DMSO for 30 min at a density of 1 × 10^6 cells/ml and added to the upper chambers, the final concentration of the compound is: 0.2 μM, 1 μM, 5 μM, and 25 μM, respectively.

CXCR4 = target: T2, CXCR4 (Homo sapiens, UniProt P61073); assay: Chemotaxis assay for receptor specificity, HEK293-CXCR4; assay type: cell-based; details: compound as chemoattractant in lower chamber, 0.2, 1, 5, 25 μM
T2 construct: expressed in transfected cells; host or cells: HEK293; plasmid from Chinese National Human Genome Center
Procedure: HEK293 cells were transfected with different chemokine receptors. Compound 8a with DMSO was diluted to 0.2 mM, 1 mM, 5 mM and 25 mM, and then we used RPMI 1640 medium containing 0.1% BSA for dilution. The final concentration is: 0.2 μM, 1 μM, 5 μM and 25 μM. DMSO was also diluted 1000-fold with 0.1% BSA RPMI 1640 medium. Chemokines was also diluted to an appropriate concentration. The dilutions of Compound 8a, 1‰ DMSO, the corresponding chemokines of different receptors and 0.1% BSA RPMI 1640 medium were placed in the lower chambers (27.5 μl/well). The transfected HEK293 cells were resuspended in the same medium at a density of 1 × 10^6 cells/ml and added to the upper chambers (55 μl/well).

CCR7 = target: T3, CCR7 (Homo sapiens, UniProt P32248); assay: Chemotaxis inhibition assay for receptor specificity, HEK293-CCR7; assay type: cell-based; details: 0.2, 1, 5, 25 μM, 30 min pretreatment
T3 construct: expressed in transfected cells; host or cells: HEK293, pcDB-CCR7 plasmid made in the authors' laboratory
T3 sequence (P32248 25-378): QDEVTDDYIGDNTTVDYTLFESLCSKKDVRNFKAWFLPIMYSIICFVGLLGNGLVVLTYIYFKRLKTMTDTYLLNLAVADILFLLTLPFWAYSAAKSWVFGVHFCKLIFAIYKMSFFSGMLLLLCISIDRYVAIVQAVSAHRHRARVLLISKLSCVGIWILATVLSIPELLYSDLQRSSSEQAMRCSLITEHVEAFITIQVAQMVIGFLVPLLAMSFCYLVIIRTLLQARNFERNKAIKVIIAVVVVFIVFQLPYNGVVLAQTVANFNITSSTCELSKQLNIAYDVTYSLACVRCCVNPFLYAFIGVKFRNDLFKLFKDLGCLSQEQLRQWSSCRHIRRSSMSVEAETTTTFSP
Procedure: as §1

[1] = test system: OVA-induced asthmatic mice; assay: Airway hyperresponsiveness to aerosolized methacholine in OVA-induced asthmatic mice; assay type: in vivo, BALB/c mice; details: days 24-26, 24 h after final OVA challenge
Procedure: (§2) Male BALB/c 6 week old mice were purchased from the Experimental Animal Center of Zhejiang University. All mice were raised in a specific pathogen-free animal facility. All animal experiments were carried out according to the guidelines for the care and use of laboratory animals and were approved by the ethics committee of Zhejiang University and Peking University, China.
(§3) Mice were sensitized and challenged with chicken egg OVA (sigma-Aldrich, St Louis, MO, USA) as described in details previously. Briefly, after sensitized by intraperitoneal injection of 100 μl (80 μg) OVA in 100 μl alum (Pierce, Rockford, IL, USA) on days 0 and 14, mice were exposure to 1% OVA aerosols for 40 min on days 24–26. Control mice were injected intraperitoneally with saline and exposed to saline aerosols.
Compound 8a was dissolved in saline with DMSO (0.5%). Half an hour before each OVA challenge, the groups of mice treated with various doses of compound 8a (0.2, 1, 5 mg) inhaled aerosolized compound 8a for 45 min on days 24–26. Compound 8a aerosols were produced by using a Plexiglas chamber and ultrasonic nebulizer. While the budesonide (BUD) group were administered with 5 mg budesonide, and the vehicle group were treated with compound-dissolved vehicle. The Saline was treated as the control.
Twenty-four hours after the last challenge, mice were anesthetized and tracheotomized with a cannula, then ventilated at a fixed breathing rate. Once being stabilized, mice were challenged via the airways with saline or increasing concentrations of Mch (1, 2, 4, 8, 16 mg/ml) by nebulization. Airway resistance was measured by FinePointe Series RC Sites (Buxco Research System). Changes in airway resistance were calculated for each Mch concentration.

CCR1 = target: T4, CCR1 (Homo sapiens, UniProt P32246); assay: Chemotaxis inhibition assay for receptor specificity, HEK293-CCR1; assay type: cell-based; details: 0.2, 1, 5, 25 μM, 30 min pretreatment
T4 construct: expressed in transfected cells; host or cells: HEK293; plasmid gift of Dr. Philip M. Murphy (NIAID, NIH)
T4 sequence (P32246 1-355): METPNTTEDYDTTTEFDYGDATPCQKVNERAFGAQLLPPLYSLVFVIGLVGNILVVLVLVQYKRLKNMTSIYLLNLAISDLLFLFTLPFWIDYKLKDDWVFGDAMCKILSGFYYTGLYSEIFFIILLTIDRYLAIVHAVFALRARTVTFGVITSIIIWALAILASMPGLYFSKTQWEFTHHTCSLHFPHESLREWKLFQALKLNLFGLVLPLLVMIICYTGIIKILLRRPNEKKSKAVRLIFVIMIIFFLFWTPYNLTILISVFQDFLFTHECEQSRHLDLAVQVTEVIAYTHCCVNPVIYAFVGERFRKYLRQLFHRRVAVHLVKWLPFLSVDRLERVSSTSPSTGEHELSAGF
Procedure: as §1

[2] = test system: OVA-induced asthmatic mice; assay: Lung histology (H&E) inflammation score in OVA-induced asthmatic mice; assay type: in vivo, BALB/c mice; details: 5 mg inhaled aerosol; vs OVA mice treated with vehicle
Procedure: as §2, §3
Compound 8a was dissolved in saline with DMSO (0.5%). Half an hour before each OVA challenge, the groups of mice treated with various doses of compound 8a (0.2, 1, 5 mg) inhaled aerosolized compound 8a for 45 min on days 24–26. Compound 8a aerosols were produced by using a Plexiglas chamber and ultrasonic nebulizer. […]
After sacrificed, the lungs were fixed in formalin overnight. […] Inflammation was scored according to published guidelines. And PAS-stained goblet cells in airway epithelium were quantified as described previously.

T2 sequence (P61073 1-356 isoform P61073-2): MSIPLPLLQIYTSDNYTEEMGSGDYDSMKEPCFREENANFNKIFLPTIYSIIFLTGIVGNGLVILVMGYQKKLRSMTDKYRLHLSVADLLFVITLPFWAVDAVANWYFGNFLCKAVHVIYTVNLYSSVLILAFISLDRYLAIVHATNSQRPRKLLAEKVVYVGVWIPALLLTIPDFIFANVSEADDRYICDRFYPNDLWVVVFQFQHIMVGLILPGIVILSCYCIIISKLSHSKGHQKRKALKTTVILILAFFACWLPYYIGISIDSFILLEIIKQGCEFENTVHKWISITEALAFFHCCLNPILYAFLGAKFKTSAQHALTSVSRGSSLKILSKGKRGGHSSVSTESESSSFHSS

inhibition of chemotaxis of HEK293-CCR3 to its ligand (CCR3): few influence
chemotaxis effect of the compound on HEK293-CXCR4 (CXCR4): didn’t exert chemotaxis effects
inhibition of chemotaxis of HEK293-CCR7 to its ligand (CCR7): few influence
inhibition of chemotaxis of HEK293-CCR1 to its ligand (CCR1): few influence
SMILES: O=C(C1CCCCN1)N1CCN(c2nc(Cl)cc(NCc3ccc(Cl)cc3Cl)n2)CC1 (centres unmarked) [compound 8a, {4-[4-Chloro-6-(2,4-dichloro-benzylamino)-pyrimidin-2-yl]-piperazin-1-yl}-piperidin-2-yl-methanone]
AHR to methacholine compared with asthmatic mice treated with vehicle ([1]; 0.2 mg inhaled aerosol): significantly lower
AHR to methacholine compared with asthmatic mice treated with vehicle ([1]; 1 mg inhaled aerosol): significantly lower
AHR to methacholine compared with asthmatic mice treated with vehicle ([1]; 5 mg inhaled aerosol): significantly lower
peribronchial and perivascular inflammation (H&E histology) [2]: comparable inhibitory effect
